Measured values taken from PMC8509773, “3-Pyridinylidene Derivatives of Chemically Modified Lupane and Ursane Triterpenes as Promising Anticancer Agents by Targeting Apoptosis” (International Journal of Molecular Sciences, 2021).

Columns and labels:
Test in all cases: NCI-60 SRB screening (one-dose and five-dose)
Type in all cases: cell-based, human
MCF7 = conditions: 48 h
Protocol: (§1) The compounds were added at a single concentration and the cell cultures were incubated for 48 h. The end point determinations were made with a protein binding dye, sulforhodamine B (SRB). […] The percentage of growth was evaluated spectrophotometrically versus controls not treated with test agents after 48-h exposure and using SRB protein assay to estimate cell viability or growth. […] Furthermore, mean graph midpoints (MG_MID) were calculated for each of the parameters, giving an average activity parameter over all cell lines for the tested compound. For the MG_MID calculation, insensitive cell lines were included with the highest concentration tested.

MDA-MB-231/ATCC = conditions: 48 h
Protocol: as §1

IGROV1 = conditions: 48 h
Protocol: as §1

MDA-MB-468 = conditions: 48 h
Protocol: as §1

SW-620 = conditions: 48 h
Protocol: as §1

SK-OV-3 = conditions: 48 h
Protocol: as §1

M14 = conditions: 48 h
Protocol: as §1

RXF 393 = conditions: 48 h
Protocol: as §1

A498 = conditions: 48 h
Protocol: as §1

NCI-H226 = conditions: 48 h
Protocol: as §1

SNB-19 = conditions: 48 h
Protocol: as §1

NCI-H322M = conditions: 48 h
Protocol: as §1

SK-MEL-2 = conditions: 48 h
Protocol: as §1

SR = conditions: Homo sapiens, five dose 0.01–100 μM, 48 h
Protocol: as §1

KM-12 = conditions: 48 h
Protocol: as §1

RPMI-8226 = conditions: 48 h
Protocol: as §1

HOP-92 = conditions: 48 h
Protocol: as §1

OVCAR-8 = conditions: 48 h
Protocol: as §1

NCI/ADR-RES = conditions: 48 h
Protocol: as §1

PC-3 = conditions: 48 h
Protocol: as §1

NCI-H23 = conditions: 48 h
Protocol: as §1

K-562 = conditions: 48 h
Protocol: as §1

HOP-62 = conditions: 48 h
Protocol: as §1

SK-MEL-28 = conditions: 48 h
Protocol: as §1

HL-60(TB) = conditions: 48 h
Protocol: as §1

UACC-62 = conditions: 48 h
Protocol: as §1

HS 578T = conditions: 48 h
Protocol: as §1

OVCAR-5 = conditions: 48 h
Protocol: as §1

HT29 = conditions: 48 h
Protocol: as §1

CAKI-1 = conditions: 48 h
Protocol: as §1

LOX IMVI = conditions: 48 h
Protocol: as §1

NCI-H460 = conditions: 48 h
Protocol: as §1

OVCAR-3 = conditions: 48 h
Protocol: as §1

BT-549 = conditions: 48 h
Protocol: as §1

HCT-15 = conditions: 48 h
Protocol: as §1

HCC-2998 = conditions: 48 h
Protocol: as §1

U251 = conditions: 48 h
Protocol: as §1

TK-10 = conditions: 48 h
Protocol: as §1

SF-295 = conditions: 48 h
Protocol: as §1

NCI-H522 = conditions: 48 h
Protocol: as §1

[1] = Homo sapiens, five dose 0.01–100 μM

## C[C@H]1[C@@H]2[C@H]3CC[C@@H]4[C@@]5(C)C/C(=C\c6cccnc6)C(=O)C(C)(C)[C@@H]5CC[C@@]4(C)[C@]3(C)CC[C@]23CO[C@@]1(C)[C@@H](C(=O)/C=C/c1cccnc1)C3 [Compound 6, 3-Oxo-2-(3-pyridinylidene)-21-[3-(2E-pyridinyl)-prop-2-en-1-one]-20β,28-epoxy-18α,19βH-ursane]
MCF7; Homo sapiens, MCF7, five dose 0.01–100 μM
  GI50: 910 nM
MCF7; MCF7, 10 μM
  Growth Percent: 9.88%
MDA-MB-231/ATCC; 10 μM
  Growth Percent: −30.71%
MDA-MB-231/ATCC; [1]
  GI50: 1030 nM
IGROV1; Homo sapiens, IGROV-1, IGROV1, five dose 0.01–100 μM
  GI50: 960 nM
IGROV1; IGROV1, 10 μM
  Growth Percent: 1.25%
MDA-MB-468; Homo sapiens, MDA-MB-468, five dose 0.01–100 μM
  GI50: 860 nM
MDA-MB-468; MDA-MB-468, 10 μM
  Growth Percent: −5.83%
SW-620; Homo sapiens, SW-620, five dose 0.01–100 μM
  GI50: 980 nM
SW-620; SW-620, 10 μM
  Growth Percent: −26.39%
SK-OV-3; Homo sapiens, SK-OV-3, five dose 0.01–100 μM
  GI50: 5900 nM
SK-OV-3; SK-OV-3, 10 μM
  Growth Percent: 58.93%
M14; Homo sapiens, M14, five dose 0.01–100 μM
  GI50: 1740 nM
M14; M14, 10 μM
  Growth Percent: −20.11%
RXF 393; Homo sapiens, RXF 393, five dose 0.01–100 μM
  GI50: 830 nM
RXF 393; RXF 393, 10 μM
  Growth Percent: −91.75%
A498; A498, 10 μM
  Growth Percent: −59.07%
A498; Homo sapiens, A498, five dose 0.01–100 μM
  GI50: 780 nM
NCI-H226; Homo sapiens, NCI-H226, five dose 0.01–100 μM
  GI50: 1020 nM
NCI-H226; NCI-H226, 10 μM
  Growth Percent: −13.51%
SNB-19; Homo sapiens, SNB-19, five dose 0.01–100 μM
  GI50: 850 nM
SNB-19; SNB-19, 10 μM
  Growth Percent: 2.48%
NCI-H322M; 10 μM
  Growth Percent: 46.39%
NCI-H322M; [1]
  GI50: 1820 nM
SK-MEL-2; Homo sapiens, SK-MEL-2, five dose 0.01–100 μM
  GI50: 1300 nM
SK-MEL-2; SK-MEL-2, 10 μM
  Growth Percent: −25.53%
SR
  GI50: 160 nM
KM-12; Homo sapiens, KM12, KM-12, five dose 0.01–100 μM
  GI50: 910 nM
KM-12; KM-12, 10 μM
  Growth Percent: −55.61%
RPMI-8226; Homo sapiens, RPMI-8226, five dose 0.01–100 μM
  GI50: 160 nM
RPMI-8226; RPMI-8226, 10 μM
  Growth Percent: 5.06%
HOP-92; HOP-92, 10 μM
  Growth Percent: −19.97%
HOP-92; Homo sapiens, HOP-92, five dose 0.01–100 μM
  GI50: 820 nM
OVCAR-8; Homo sapiens, OVCAR-8, five dose 0.01–100 μM
  GI50: 1600 nM
OVCAR-8; OVCAR-8, 10 μM
  Growth Percent: −13.55%
NCI/ADR-RES; 10 μM
  Growth Percent: 2.97%
NCI/ADR-RES; [1]
  GI50: 1700 nM
PC-3; Homo sapiens, PC-3, five dose 0.01–100 μM
  GI50: 260 nM
PC-3; PC-3, 10 μM
  Growth Percent: −3.56%
NCI-H23; Homo sapiens, NCI-H23, five dose 0.01–100 μM
  GI50: 1040 nM
NCI-H23; NCI-H23, 10 μM
  Growth Percent: −48.71%
K-562; Homo sapiens, K562, K-562, five dose 0.01–100 μM
  GI50: 30 nM
K-562; K-562, 10 μM
  Growth Percent: 6.51%
HOP-62; HOP-62, 10 μM
  Growth Percent: −13.55%
HOP-62; Homo sapiens, HOP-62, five dose 0.01–100 μM
  GI50: 1560 nM
SK-MEL-28; Homo sapiens, SK-MEL-28, five dose 0.01–100 μM
  GI50: 940 nM
SK-MEL-28; SK-MEL-28, 10 μM
  Growth Percent: −17.77%
HL-60(TB); 10 μM
  Growth Percent: 14.49%
HL-60(TB); [1]
  GI50: 560 nM
UACC-62; Homo sapiens, UACC-62, five dose 0.01–100 μM
  GI50: 600 nM
UACC-62; UACC-62, 10 μM
  Growth Percent: −25.57%
HS 578T; 10 μM
  Growth Percent: 11.24%
HS 578T; [1]
  GI50: 1440 nM
OVCAR-5; Homo sapiens, OVCAR-5, five dose 0.01–100 μM
  GI50: 1460 nM
OVCAR-5; OVCAR-5, 10 μM
  Growth Percent: −4.00%
HT29; HT29, 10 μM
  Growth Percent: 26.36%
HT29; Homo sapiens, HT-29, HT29, five dose 0.01–100 μM
  GI50: 1500 nM
CAKI-1; CAKI-1, 10 μM
  Growth Percent: 9.32%
CAKI-1; Homo sapiens, CAKI-1, five dose 0.01–100 μM
  GI50: 1420 nM
LOX IMVI; 10 μM
  Growth Percent: −85.19%
LOX IMVI; [1]
  GI50: 890 nM
NCI-H460; Homo sapiens, NCI-H460, five dose 0.01–100 μM
  GI50: 890 nM
NCI-H460; NCI-H460, 10 μM
  Growth Percent: −45.33%
OVCAR-3; Homo sapiens, OVCAR-3, five dose 0.01–100 μM
  GI50: 880 nM
OVCAR-3; OVCAR-3, 10 μM
  Growth Percent: −43.66%
BT-549; BT-549, 10 μM
  Growth Percent: −20.09%
BT-549; Homo sapiens, BT-549, five dose 0.01–100 μM
  GI50: 730 nM
HCT-15; HCT-15, 10 μM
  Growth Percent: −15.30%
HCT-15; Homo sapiens, HCT-15, five dose 0.01–100 μM
  GI50: 1110 nM
HCC-2998; HCC-2998, 10 μM
  Growth Percent: −67.18%
HCC-2998; Homo sapiens, HCC-2998, five dose 0.01–100 μM
  GI50: 890 nM
U251; Homo sapiens, U-251, U251, five dose 0.01–100 μM
  GI50: 1040 nM
U251; U251, 10 μM
  Growth Percent: −68.02%
TK-10; Homo sapiens, TK-10, five dose 0.01–100 μM
  GI50: 1830 nM
TK-10; TK-10, 10 μM
  Growth Percent: −14.49%
SF-295; Homo sapiens, SF-295, five dose 0.01–100 μM
  GI50: 1690 nM
SF-295; SF-295, 10 μM
  Growth Percent: 6.07%
NCI-H522; Homo sapiens, NCI-H522, five dose 0.01–100 μM
  GI50: 1360 nM
NCI-H522; NCI-H522, 10 μM
  Growth Percent: −34.35%
